# In ChEMBL document CHEMBL2074316, “Multidrug resistance protein-mediated transport of chlorambucil and melphalan conjugated to glutathione” (Br J Cancer, 1998):
# Molecular target: Multidrug resistance-associated protein 1 (Homo sapiens, UniProt P33527)
# Assay: TP_TRANSPORTER: uptake in membrane vesicle from MRP1-expressing HeLa cells
# Assay type: functional, cell membranes
# Multidrug resistance-associated protein 1, sequence (P33527 whole entry): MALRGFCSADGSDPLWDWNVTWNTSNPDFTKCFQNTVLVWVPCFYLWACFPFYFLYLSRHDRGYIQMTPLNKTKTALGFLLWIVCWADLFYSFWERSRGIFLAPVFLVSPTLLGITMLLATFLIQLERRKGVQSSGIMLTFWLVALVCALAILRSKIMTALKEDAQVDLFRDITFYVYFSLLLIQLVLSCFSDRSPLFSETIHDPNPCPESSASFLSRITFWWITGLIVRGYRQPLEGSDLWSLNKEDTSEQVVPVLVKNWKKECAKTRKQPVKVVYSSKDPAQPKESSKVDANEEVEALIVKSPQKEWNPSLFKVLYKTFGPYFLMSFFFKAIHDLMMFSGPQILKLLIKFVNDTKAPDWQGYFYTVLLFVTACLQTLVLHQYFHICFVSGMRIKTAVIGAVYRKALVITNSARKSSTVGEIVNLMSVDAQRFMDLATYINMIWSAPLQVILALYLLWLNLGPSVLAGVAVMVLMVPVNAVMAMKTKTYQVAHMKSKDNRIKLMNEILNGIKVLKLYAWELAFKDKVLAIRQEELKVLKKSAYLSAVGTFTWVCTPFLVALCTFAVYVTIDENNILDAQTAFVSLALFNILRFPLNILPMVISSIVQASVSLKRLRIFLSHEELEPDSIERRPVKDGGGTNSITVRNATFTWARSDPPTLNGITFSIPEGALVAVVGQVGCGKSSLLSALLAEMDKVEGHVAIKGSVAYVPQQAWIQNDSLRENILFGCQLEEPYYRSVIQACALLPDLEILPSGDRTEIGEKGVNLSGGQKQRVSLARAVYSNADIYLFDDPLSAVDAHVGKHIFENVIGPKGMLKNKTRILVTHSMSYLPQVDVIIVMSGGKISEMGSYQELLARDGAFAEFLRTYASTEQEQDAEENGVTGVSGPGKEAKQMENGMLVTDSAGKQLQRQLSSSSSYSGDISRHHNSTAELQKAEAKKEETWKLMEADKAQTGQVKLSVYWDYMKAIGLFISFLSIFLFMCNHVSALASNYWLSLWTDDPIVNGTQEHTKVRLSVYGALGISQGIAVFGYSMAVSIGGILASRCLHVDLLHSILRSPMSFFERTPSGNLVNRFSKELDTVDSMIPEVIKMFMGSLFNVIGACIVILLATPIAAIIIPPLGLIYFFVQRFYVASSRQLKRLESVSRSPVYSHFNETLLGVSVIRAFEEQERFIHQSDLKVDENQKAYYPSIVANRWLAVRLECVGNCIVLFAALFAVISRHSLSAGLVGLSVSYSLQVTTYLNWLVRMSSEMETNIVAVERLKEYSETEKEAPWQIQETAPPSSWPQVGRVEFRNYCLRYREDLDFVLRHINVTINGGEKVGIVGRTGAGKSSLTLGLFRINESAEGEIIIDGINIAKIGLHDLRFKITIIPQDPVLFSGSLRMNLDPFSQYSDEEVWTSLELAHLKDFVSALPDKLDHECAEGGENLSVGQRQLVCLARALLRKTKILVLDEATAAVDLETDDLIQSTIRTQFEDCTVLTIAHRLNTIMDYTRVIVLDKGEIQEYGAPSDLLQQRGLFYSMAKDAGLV
row,SMILES,Activity
1,NC(CCC(=O)NC(CSCCN(CCO)c1ccc(CCCC(=O)O)cc1)C(=O)NCC(=O)O)C(=O)O (configuration not stated) [MONOHYDROXY MONOGLUTATHIONYL CHLORAMBUCIL],substrate [+]
2,C=C(NCC(=O)O)[C@H](CSCCN(CCSC[C@H](NC(=O)CC[C@H](N)C(=O)O)C(=O)NCC(=O)O)c1ccc(CCCC(=O)O)cc1)NC(=O)CC[C@H](N)C(=O)O [BISGLUTATHIONYL CHLORAMBUCIL],substrate [+]
